The record followed here is ChEMBL document CHEMBL5393452, “Mettl3 inhibitory compounds” (2020).

The structures appear in SMILES notation. Activity calls are given as the source filed them. The calls are words filed in the database; no cut-off is given here.

In test [1] the test system is MOLM-13. Put plainly: Antiproliferative activity against human MOLM-13 cells incubated for 6 days by CellTiter-Glo assay. Format: functional, cell-based. The conditions noted are these: MOLM-13, 144 h.
Test [2] deals with Caov-3 cell line. Put plainly: Antiproliferative activity against human Caov-3 cells incubated for 120 hrs by CellTiter-Glo assay. Format: functional, cell-based. The settings on record: Caov-3, 120 h.
For test [3], the target named is N6-adenosine-methyltransferase catalytic subunit (Homo sapiens, UniProt Q86U44). Put plainly: Inhibition of METTL3 in human MOLM-13 cells assessed as reduction in m6A methylation level at 0.1 to 50 uM measured by NanoDrop spectrophotomery analysis. The conditions noted are these: dose 0.1-50 µM. The format is cell-based.
Test [4] has as its system THP-1. Put plainly: Antiproliferative activity against IFN-gamma-treated human THP-1 cells incubated for 7 days by CellTiter-Glo assay. Format: functional, cell-based. The conditions noted are these: THP-1, 168 h.
In test [5] the test system is MOLM-13. Kind of test: Antiproliferative activity against IFN-gamma-treated human MOLM-13 cells incubated for 7 days by CellTiter-Glo assay. The settings on record: MOLM-13, 168 h. The format is functional, cell-based.
Test [6] deals with KCL-22. Put plainly: Antiproliferative activity against IFN-gamma-treated human KCL-22 cells incubated for 6 days by CellTiter-Glo assay. Format: functional, cell-based. The conditions noted are these: KCL-22, 144 h.
Test [7] concerns Kasumi 1. Put plainly: Antiproliferative activity against IFN-gamma-treated human Kasumi 1 cells incubated for 6 days by CellTiter-Glo assay. The format is functional, cell-based. The conditions noted are these: Kasumi 1, 144 h.
The subject of test [8] is NOMO-1. Kind of test: Antiproliferative activity against IFN-gamma-treated human NOMO-1 cells incubated for 6 days by CellTiter-Glo assay. The format is functional, cell-based. The conditions noted are these: NOMO-1, 144 h.

Sequence of N6-adenosine-methyltransferase catalytic subunit (Q86U44 whole entry): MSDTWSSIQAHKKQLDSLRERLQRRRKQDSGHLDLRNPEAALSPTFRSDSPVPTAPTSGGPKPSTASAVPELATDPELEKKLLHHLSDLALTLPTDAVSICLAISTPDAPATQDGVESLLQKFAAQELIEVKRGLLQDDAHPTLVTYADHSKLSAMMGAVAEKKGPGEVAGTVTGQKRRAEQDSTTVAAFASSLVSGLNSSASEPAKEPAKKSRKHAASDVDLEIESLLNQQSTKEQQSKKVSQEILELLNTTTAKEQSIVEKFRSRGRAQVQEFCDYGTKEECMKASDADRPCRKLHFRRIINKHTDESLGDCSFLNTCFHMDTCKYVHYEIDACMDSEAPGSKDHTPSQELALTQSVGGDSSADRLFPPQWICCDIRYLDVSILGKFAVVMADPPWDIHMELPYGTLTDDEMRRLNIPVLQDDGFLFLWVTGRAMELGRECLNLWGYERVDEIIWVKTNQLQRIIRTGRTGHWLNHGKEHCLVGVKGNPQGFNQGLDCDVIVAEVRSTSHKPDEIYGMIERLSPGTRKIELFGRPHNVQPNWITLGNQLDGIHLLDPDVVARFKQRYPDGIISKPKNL

Take `O=C(NCc1cn2cc(CNCC3CC4(CC4)C3)ccc2n1)c1cc(=O)n2ccccc2n1`: in test [1], the half-inhibitory concentration (IC50) was 30 µM. In other words, the double-digit micromolar range.
For the compound `O=C(O)c1cc(-c2cn(Cc3cn4cc(CNCC5CCC5)ccc4n3)nn2)c2cn[nH]c2c1`, the IC50 in test [1] was 30 µM. That is a double-digit micromolar value.
In test [1], `O=C(NCc1cn2cc(CCNCc3ccccc3)ccc2n1)c1cc(=O)n2ccccc2n1` yielded an IC50 of 30 µM.
The same measure, in the same setting: with `CN(Cc1ccccc1)Cc1ccc2nc(CNC(=O)c3cc(=O)n4ccccc4n3)cn2c1` the figure was 30 µM.
The same measure, in the same setting: the figure for `CN(C)C(=O)c1cc(-c2cn(Cc3cn4cc(CNCC5CCC5)ccc4n3)nn2)c2cn[nH]c2c1` is 30 µM; for `N#CCC(NCC1CCC1)c1ccc2nc(CNC(=O)c3cc(=O)n4ccccc4n3)cn2c1` (stereo not given) it is 30 µM; for `CC(C)(C)NCc1ccc2nc(CNC(=O)c3cc(=O)n4ccccc4n3)cn2c1` it is 30 µM.
Same read-out and setting: the figure for `NC(=O)c1cc(-c2cn(Cc3cn4cc(CNCC5CCC5)ccc4n3)nn2)c2cn[nH]c2c1` is 30 µM; for `CC(C)(O)CNCc1ccc2nc(CNC(=O)c3cc(=O)n4ccccc4n3)cn2c1` it is 30 µM.
The compound `O=C(NCc1cn2cc(CNC3CCC3)ccc2n1)c1cc(=O)n2ccccc2n1` showed a concentration for half-maximal inhibition (IC50) in test [1] of 30 µM.
Still for that read-out and setting: with `O=C(NCc1cn2cc(CNCCCc3ccccc3)ccc2n1)c1cc(=O)n2ccccc2n1` the figure was 4.64 µM; with `O=C(NCc1cn2cc(CNCCC3CC(F)(F)C3)ccc2n1)c1cc(=O)n2ccccc2n1`, 30 µM.
The same measure, in the same setting: with `COC(C)(C)CNCc1ccc2nc(CNC(=O)c3cc(=O)n4ccccc4n3)cn2c1` the figure was 30 µM.
On to `O=C(NCc1cn2cc(CNCC34CC(C3)C4)ccc2n1)c1cc(=O)n2ccccc2n1`, for which the IC50 in test [1] worked out at 1.33 µM; in test [2] it was 0.296 µM.
For `Cc1ccc2nc(CNC(=O)c3cc(=O)n4ccccc4n3)cn2c1`, the inhibition result in test [3] is “Active”.
For `O=C(NCc1cn2cc(CNCc3ccccc3)ccc2n1)c1cc(=O)n2ccccc2n1`, the IC50 stood at 3.59 µM in test [1]; 2.12 µM in test [4]; 0.847 µM in test [5]; 14 µM in test [6]; 1.89 µM in test [7]; 6.55 µM in test [8].
For `Oc1cc(-c2cn(Cc3cn4cc(CNCC5(O)CCC5)ccc4n3)nn2)c2cn[nH]c2c1`, the midpoint of inhibition in test [1], the IC50, lay at 30 µM.
Still for that read-out and setting: with `O=C(NCc1cn2cc(CNCCc3ccccc3)ccc2n1)c1cc(=O)n2ccccc2n1` the figure was 3.9 µM; with `O=C(c1cc(-c2cn(Cc3cn4cc(CNCC5CCC5)ccc4n3)nn2)c2cn[nH]c2c1)N1CCOCC1`, 30 µM.
